Test results taken from patent publication US7932382B2, “Conformationally constrained Smac mimetics and the uses thereof” (The Regents of the University of Michigan, priority 2005, dated 2011).
Where a SMILES comes first, the peptide text is derived from it. [ ]: non-standard residue; d: D form. The star is where a group is joined. 6FAM = O=C1OC2(c3ccc(O)cc3Oc3cc(O)ccc32)c2cc(C(=O)*)ccc21; Abu = CC[C@H](N)C(=O)O

What was measured:
[1] = molecular target: T1, human XIAP-BIR3 protein (residues 241-356) (Homo sapiens, UniProt P98170); test: Fluorescence polarization saturation (direct) binding of labeled Smac peptides; design: The human XIAP-BIR3 protein (residues 241-356) with a His tag; details: 5 nM labeled peptide titrated with 0 to 40 μM protein; read-out: Kd value (dissociation constant to XIAP-BIR3)
T1 sequence (P98170 241-356): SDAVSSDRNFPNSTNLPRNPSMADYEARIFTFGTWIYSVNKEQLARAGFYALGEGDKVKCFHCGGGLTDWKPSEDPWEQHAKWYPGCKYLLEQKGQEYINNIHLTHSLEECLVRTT

PC-3 cells = test: Apoptosis by Annexin V-FITC staining in PC-3 cells; assay type: cell-based, human; details: for potentiation of the activity of CDDP in inducing apoptosis: PC-3 cells
Protocol: PC-3 cells were treated with CDDP, Smac peptides and mimetics alone or in combination for 42 hours and apoptosis was analyzed by Annexin V-FITC staining. […] Combination of 25 μM CDDP and 10 μM or 25 μM SH-97 induced 29.3%±1.9% and 35.8%±0.4% apoptosis over control cells, respectively (FIG. 10A).
Similar experiments were performed with SH-102 (Table 5). PC-3 cells in 6-well plates were treated with SH-102 and CDDP, alone or on combination, for 42 hours. Cells were collected and stained with Annexin V-FITC and propidium iodide. The fluorescence of Annexin V-FITC and propidium iodide of individual cells was analyzed by flow cytometry. […] Combination of 25 μM CDDP and 10 μM SH-102 induced 32% apoptosis over control cells (FIG. 11).
The same experiment was performed using TAXOTERE (docetaxel), another cancer chemotherapeutic drug. PC-3 cells in 6-well plates were treated with SH-102 and TAXOTERE, alone or in combination, for 42 hours. Cells were collected and stained with Annexin V-FITC and propidium iodide. The fluorescence of Annexin V-FITC and propidium iodide of individual cells was analyzed by flow cytometry. […] Combination of 10 μM taxotere and 10 μM SH-102 induced about 18% apoptosis over control cells (FIG. 13).

MDA-231 cells = test: Apoptosis by Annexin V-FITC/propidium iodide flow cytometry in MDA-231 cells; assay type: cell-based, human; details: for cells undergoing apoptosis as compared to control cells: 42 hours; for potentiation of the activity of CDDP in inducing apoptosis: MDA-231 cells
Protocol: Similar experiments were performed using the breast cancer cell line MDA-231. MDA-231 cells in 6-well plates were treated with SH-102 and CDDP, alone or on combination, for 42 hours. Cells were collected and stained with Annexin V-FITC and propidium iodide. The fluorescence of Annexin V-FITC and propidium iodide of individual cells was analyzed by flow cytometry. 25 μM and 50 μM CDDP induced about 25% and 42% of MDA-231 cells to undergo apoptosis as compared to control cells, respectively (FIG. 14). […] Combination of 25 and 50 μM CDDP and 10 μM SH-102 induced about 35% and 75% apoptosis over control cells, respectively (FIG. 14).

[2] = molecular target: T1, human XIAP-BIR3 protein (residues 241-356); test: biochemical
[3] = tested on: MDA-435, MDA468, and T47D cells; test: Cell growth inhibition (WST-8) in breast cancer cell lines; assay type: cell-based, human; details: all three cell lines, 5 days
Protocol: To test the effect of Smac mimetics by themselves in inhibition of cell growth in human cancer cells, SH-102 was administered to three different breast cancer cell lines. MDA-435, MDA468, and T47D cells were seeded in 96-well plates with increasing concentrations of SH-102, Smac8, or Smac8-C. The cells were then incubated at 37° C. with 5% CO2 for 5 days, followed by detection of cell viability with WST-8. Untreated cells were used as 100% growth. […]. […] (FIGS. 18A-18C).

XIAP = XIAP (Homo sapiens, UniProt P98170); details: cited from earlier work
XIAP, sequence (P98170 whole entry): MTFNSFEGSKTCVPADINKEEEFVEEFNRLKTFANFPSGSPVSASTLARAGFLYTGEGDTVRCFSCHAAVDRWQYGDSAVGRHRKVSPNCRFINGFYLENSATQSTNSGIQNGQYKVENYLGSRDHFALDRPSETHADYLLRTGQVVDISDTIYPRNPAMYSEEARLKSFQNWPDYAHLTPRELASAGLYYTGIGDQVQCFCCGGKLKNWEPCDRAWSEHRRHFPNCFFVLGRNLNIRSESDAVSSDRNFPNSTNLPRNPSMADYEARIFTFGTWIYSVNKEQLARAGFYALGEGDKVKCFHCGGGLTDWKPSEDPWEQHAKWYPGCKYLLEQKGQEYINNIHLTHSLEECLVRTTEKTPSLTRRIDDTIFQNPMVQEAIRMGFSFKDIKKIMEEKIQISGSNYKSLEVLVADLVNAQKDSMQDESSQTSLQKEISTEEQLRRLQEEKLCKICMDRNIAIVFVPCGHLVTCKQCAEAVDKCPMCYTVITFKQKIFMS

CC[C@H](N)C(=O)N[C@@H](CCCNC(=N)N)C(=O)N1CCC[C@H]1C(=O)N[C@@H](Cc1ccccc1)C(=O)N[C@@H](CCCCNC(=O)c1ccc2c(c1)C1(OC2=O)c2ccc(O)cc2Oc2cc(O)ccc21)C(N)=O [SM5F, AbuRPFK-FAM] (H-[Abu]RPFK(6FAM)-NH2; N-terminus and C-terminus assumed)
Kd [1]: 17.9 nM

[NH2][Pt]([NH2])([Cl])[Cl] [CDDP, cisplatin]
cancer cells undergoing apoptosis as compared to control cells (PC-3 cells; 50 μM CDDP alone, 42 hours): ~25% | cells undergoing apoptosis as compared to control cells (MDA-231 cells; 25 μM CDDP alone): about 25% | cells undergoing apoptosis as compared to control cells (MDA-231 cells; 50 μM CDDP alone): ~42%

CCC(CC)CNC(=O)[C@@H]1CC[C@@H]2CC[C@H](NC(=O)[C@H](C)N)C(=O)N21 [SH-76]
Ki [2]: > 200000 nM

AVPIAQKS [Smac8, Smac peptide without a carrier peptide, negative control]
potentiation of the activity of CDDP in inducing apoptosis (PC-3 cells): unable to potentiate | potentiation of the activity of CDDP in inducing apoptosis (MDA-231 cells): unable to potentiate | inhibition of cell growth (in words) [3]: essentially ineffective

CCC[C@H](N)C(=O)N[C@H]1CC[C@H]2CC[C@@H](C(=O)NCc3ccccc3)N2C1=O [SH-93]
potentiation of the activity of CDDP in inducing apoptosis (PC-3 cells): unable to potentiate | potentiation of the activity of CDDP in inducing apoptosis (MDA-231 cells): unable to potentiate

CC[C@H](N)C(=O)N[C@H]1CCC[C@H]2CC[C@@H](C(=O)NC(c3ccccc3)c3ccccc3)N2C1=O [Compound 34]
apoptosis compared to untreated cancer cells (PC-3 cells; SH-102 alone up to 100 μM, 42 hours): did not induce significantly more apoptosis

B1: mature Smac protein: mature Smac/DIABLO protein, endogenous inhibitor of XIAP (protein, UniProt Q9NR28 22-239, looked up)
Diablo IAP-binding …: LCVPVVANFKKRCFSELIRPWHKTVTIGFGVTLCAVPIAQKSEPHSLSSEALMRRAVSLVTDSTSTFLSQTTYALIEAITEYTKAVYTLTSLYRQYTSLLGKMNSEEEDEVWQVIIGARAEMTSKHQEYLKLETTWMTAVGLSEMAAEAAYQTGADQASITARNHIQLVKLQVEEVHQLSRKAETKLAEAQIEELRQKTQEEGEERAESEQEAYLRED
Kd (XIAP): 420 nM
